From ChEMBL document CHEMBL1201862, “PubChem BioAssay data set” (2004) come the findings set out here.

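Briefly, cells in 96-well plates were exposed to five compound concentrations for 48 h, and endpoints were estimated by linear interpolation. At the GI50, growth is halved.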 Activity calls are given as the source filed them. Rule as the data show it: active = GI50 up to about 1.1 µM and inactive = higher. Bounds are passed on as bounds.

Test systems include UACC-257; SK-MEL-28; COLO 205; NCI-H460; LXFL 529; K562; HCT-15; SN12C; SK-MEL-2; NCI-H226; CAKI-1; SNB-78; UO-31; OVCAR-8; LOX IMVI; RXF 393; Malme-3M; TK-10.
Assay in all cases: NCI-60 cell line screen, 48 h

Regarding `CC(=O)NNc1nc(C)c(C(/C=C/c2ccc(Cl)cc2)=N/NC(=S)NN)s1`, the GI50 in the experiment on UACC-257, in the experiment with SK-MEL-28, in the experiment with COLO 205, with NCI-H460, with LXFL 529 and in the experiment on K562 was > 100 µM (inactive) in each case. Besides, the GI50 is greater than 100 µM in the experiment with HCT-15; > 100 µM (inactive) in the experiment with SN12C; > 100 µM (inactive) in the experiment on SK-MEL-2; > 100 µM (inactive) in the experiment with NCI-H226; > 100 µM (inactive) with CAKI-1; > 100 µM (inactive) with SNB-78. Besides, the GI50 in the experiment on UO-31, in the experiment on OVCAR-8, in the experiment on LOX IMVI, in the experiment on RXF 393, with Malme-3M and in the experiment with TK-10 was > 100 µM (inactive) in each case.

Regarding `CC(C)=CC(=O)Cc1nc2cc(C)c(C)cc2[nH]c1=O`, the GI50 in the experiment with UACC-257, in the experiment on SK-MEL-28, with COLO 205, in the experiment with NCI-H460, in the experiment with LXFL 529 and in the experiment with K562 was > 100 µM (inactive) throughout. Further, the GI50 in the experiment on HCT-15 is greater than 100 µM; in the experiment on SN12C, > 100 µM (inactive); in the experiment on SK-MEL-2, > 100 µM (inactive); in the experiment on NCI-H226, > 100 µM (inactive); in the experiment on CAKI-1 it was > 100 µM (inactive); in the experiment on SNB-78 it was > 100 µM (inactive). Further, the GI50 is 75 µM (inactive) in the experiment on UO-31; > 100 µM (inactive) in the experiment with LOX IMVI; 64.9 µM (inactive) with RXF 393; > 100 µM (inactive) in the experiment with Malme-3M; > 100 µM (inactive) in the experiment with TK-10.

As to `O=c1c2cccc3cccc(c4n1CCCN=4)c32`, the GI50 in the experiment with UACC-257, in the experiment on SK-MEL-28, in the experiment on COLO 205, with NCI-H460, in the experiment on LXFL 529 and in the experiment on K562 was > 100 µM (inactive) in each case. The GI50 in the experiment with HCT-15 is greater than 100 µM; in the experiment on SN12C, > 100 µM (inactive); with SK-MEL-2 it was > 100 µM (inactive); with NCI-H226, > 100 µM (inactive); in the experiment with CAKI-1, > 100 µM (inactive); in the experiment on SNB-78 it was > 100 µM (inactive). The GI50 in the experiment on UO-31 was 80.4 µM (inactive); in the experiment on OVCAR-8, > 100 µM (inactive); in the experiment on LOX IMVI it was 20.1 µM (inactive); in the experiment on RXF 393 it was > 100 µM (inactive); in the experiment on Malme-3M it was > 100 µM (inactive); with TK-10, 47.5 µM (inactive).

With `Sc1nnc(COc2ccc(Cl)cc2)[nH]1`, the GI50 in the experiment with UACC-257, with SK-MEL-28, in the experiment on COLO 205, in the experiment on NCI-H460, in the experiment on LXFL 529 and in the experiment on K562 was > 100 µM (inactive) each time. Besides, the GI50 in the experiment with HCT-15 was greater than 100 µM; in the experiment on SN12C, > 100 µM (inactive); with SK-MEL-2 it was > 100 µM (inactive); in the experiment on NCI-H226, > 100 µM (inactive); in the experiment with CAKI-1, > 100 µM (inactive); with SNB-78, > 100 µM (inactive). For the same compound, the GI50 in the experiment with UO-31, in the experiment on OVCAR-8, in the experiment on LOX IMVI, in the experiment on RXF 393, in the experiment on Malme-3M and in the experiment with TK-10 was > 100 µM (inactive) each time.

Turning to `COc1ccc([C@@H]2CC(=O)N2)cc1`, the GI50 in the experiment with UACC-257, in the experiment on SK-MEL-28, in the experiment on COLO 205, with NCI-H460, in the experiment with LXFL 529 and in the experiment with K562 was > 100 µM (inactive) throughout. Also, the GI50 in the experiment with HCT-15 was greater than 100 µM; with SN12C, > 100 µM (inactive); in the experiment with SK-MEL-2, > 100 µM (inactive); with NCI-H226, > 100 µM (inactive); in the experiment with CAKI-1 it was > 100 µM (inactive); in the experiment with SNB-78, > 100 µM (inactive). The GI50 with UO-31, in the experiment with OVCAR-8, in the experiment on RXF 393, with Malme-3M and in the experiment on TK-10 was > 100 µM (inactive) in each case.

For the compound `CC(=O)OC1CCCn2c1nc1c2C(=O)C(C)=C(N2CC2)C1=O` (configuration not stated), the GI50 in the experiment on UACC-257 was 0.242 µM (active); with SK-MEL-28, 0.522 µM (active); in the experiment on COLO 205 it was 0.535 µM (active); in the experiment on NCI-H460, 0.0798 µM (active); with LXFL 529, 0.614 µM (active); with K562, 0.891 µM (active). Moreover, the GI50 is 0.207 µM in the experiment with HCT-15; 0.308 µM (active) with SN12C; 0.277 µM (active) with SK-MEL-2; 0.318 µM (active) with NCI-H226; 0.296 µM (active) in the experiment with CAKI-1; 0.454 µM (active) in the experiment with SNB-78. Moreover, the GI50 in the experiment on UO-31 is 0.605 µM (active); in the experiment on OVCAR-8, 0.388 µM (active); in the experiment with LOX IMVI, 0.303 µM (active); in the experiment on RXF 393 it was 0.284 µM (active); with Malme-3M it was 0.219 µM (active); in the experiment with TK-10 it was 2.75 µM (inactive).

Regarding `CN(C)/N=N/c1ccc(C(N)=O)cc1`, the GI50 in the experiment with UACC-257, with SK-MEL-28, in the experiment with COLO 205, with NCI-H460, in the experiment with LXFL 529 and in the experiment with K562 was > 100 µM (inactive) in each case. In addition, the GI50 was greater than 100 µM in the experiment with HCT-15; > 100 µM (inactive) in the experiment with SN12C; > 100 µM (inactive) in the experiment on SK-MEL-2; > 100 µM (inactive) in the experiment with NCI-H226; > 100 µM (inactive) in the experiment on CAKI-1; > 100 µM (inactive) with SNB-78. Moreover, the GI50 in the experiment on UO-31, with OVCAR-8, in the experiment on LOX IMVI, in the experiment with RXF 393, with Malme-3M and with TK-10 was > 100 µM (inactive) throughout.

`CC(C)C(Sc1nc(-c2ccccc2)c(-c2ccccc2)[nH]1)C(=O)NN` (configuration not stated): the GI50 with UACC-257 was > 100 µM (inactive); in the experiment with SK-MEL-28, > 100 µM (inactive); with COLO 205, > 100 µM (inactive); in the experiment on NCI-H460, 97.5 µM (inactive); with LXFL 529 it was > 100 µM (inactive); in the experiment on HCT-15, greater than 100 µM. Moreover, the GI50 in the experiment with SN12C, with SK-MEL-2, with NCI-H226, in the experiment with CAKI-1, with SNB-78 and in the experiment on UO-31 was > 100 µM (inactive) throughout. Besides, the GI50 in the experiment with OVCAR-8 is > 100 µM (inactive); in the experiment with LOX IMVI it was > 100 µM (inactive); with RXF 393, 31.6 µM (inactive); in the experiment with Malme-3M it was > 100 µM (inactive); in the experiment with TK-10 it was 92.5 µM (inactive).

Turning to `CC1=NN(C(=O)c2ccc(Cl)cc2)C(=O)/C1=C/c1ccc(Cl)cc1`, the GI50 with UACC-257, in the experiment on SK-MEL-28, in the experiment on COLO 205, with NCI-H460, in the experiment on LXFL 529 and with K562 was > 100 µM (inactive) each time. The GI50 in the experiment with SN12C is > 100 µM (inactive); in the experiment on SK-MEL-2 it was > 100 µM (inactive); in the experiment with CAKI-1, > 100 µM (inactive); in the experiment with SNB-78, 40.8 µM (inactive); in the experiment with UO-31, > 100 µM (inactive); with OVCAR-8 it was > 100 µM (inactive). Besides, the GI50 in the experiment with LOX IMVI, in the experiment on RXF 393, with Malme-3M and with TK-10 was > 100 µM (inactive) in each case.

For the compound `CCN(CC)CCNC(=O)c1cccc2nc3ccccc3nc12`, the GI50 with UACC-257 is 7.26 µM (inactive); with SK-MEL-28 it was 17.5 µM (inactive); in the experiment on COLO 205 it was 3.78 µM (inactive); in the experiment on LXFL 529, 16.9 µM (inactive); with K562, 1.38 µM (inactive); with HCT-15 it was 6.53 µM. Further, the GI50 is 10.3 µM (inactive) in the experiment with SN12C; 13.3 µM (inactive) with SK-MEL-2; 8.15 µM (inactive) in the experiment with NCI-H226; > 39.3 µM (inactive) in the experiment on CAKI-1; 21.4 µM (inactive) in the experiment on SNB-78; > 24.8 µM (inactive) in the experiment on UO-31. The GI50 in the experiment with OVCAR-8 was 14 µM (inactive); in the experiment on LOX IMVI, 4.4 µM (inactive); in the experiment with RXF 393, 12.4 µM (inactive); in the experiment with Malme-3M it was 11.4 µM (inactive); with TK-10 it was 27.2 µM (inactive).

Take `COc1ccc(/C=N\O[Si](C)(C)C(C)(C)C)cc1O[Si](C)(C)C(C)(C)C`: the GI50 in the experiment with UACC-257 was 20.8 µM (inactive); in the experiment on COLO 205, 22.5 µM (inactive); with NCI-H460 it was 20.6 µM (inactive); in the experiment on LXFL 529, 16.1 µM (inactive); in the experiment on K562, 18.3 µM (inactive); in the experiment on HCT-15, 18.2 µM. The GI50 was 19.2 µM (inactive) with SN12C; 16.5 µM (inactive) with SK-MEL-2; 25.1 µM (inactive) in the experiment on CAKI-1; 19.3 µM (inactive) with SNB-78; 14.7 µM (inactive) in the experiment with UO-31; 22.8 µM (inactive) with OVCAR-8. The GI50 in the experiment with LOX IMVI is 20 µM (inactive); in the experiment with RXF 393, 14.3 µM (inactive); with Malme-3M, 17.6 µM (inactive); in the experiment on TK-10, 20.4 µM (inactive).

For `C[S+]([O-])c1ccc(COP(N)(=O)N(CCCl)CCCl)cc1` (configuration not stated), the GI50 in the experiment on UACC-257, with SK-MEL-28, with COLO 205, in the experiment with NCI-H460, in the experiment on LXFL 529 and with K562 was > 100 µM (inactive) throughout. Further, the GI50 in the experiment with SN12C, in the experiment with SK-MEL-2, in the experiment on NCI-H226, in the experiment with CAKI-1, with SNB-78 and in the experiment on UO-31 was > 100 µM (inactive) in each case. Besides, the GI50 in the experiment on OVCAR-8, in the experiment with LOX IMVI, in the experiment on RXF 393, in the experiment with Malme-3M and in the experiment on TK-10 was > 100 µM (inactive) in each case.
